These results are taken from patent US12590961B2, “Quantum dot conjugated virus spike protein for cell-based bio-sensing systems and drug screening” (priority 2020, dated 2026).

Molecules are shown by their SMILES.

The subject of this assay is ACE2-GFP HEK293T cells. Type of assay: cell-based, human.

Turning to `O=C(N/N=C/c1cc(O)c(O)cc1O)c1cc2ccccc2cc1O` [Dyngo-4a], the “blocking of endo(RBD-ACE2), QD608-RBD induced translocation of ACE2-GFP” value is on record as “robustly blocked” and the “effect on ACE2-GFP localization, compound alone” value is reported as “did not affect the ACE2-GFP localization”.
